Data taken from patent US4963570A, “1-(acetylaminophenyl)-2-aminopropanone derivatives and pharmaceutical compositions thereof” (Laboratoire L. Lafon, priority 1983, dated 1990).
“Also recorded” adds a separate entry of the source. Structures can show the parent of a compound that is named as a salt.

Experiments:
[1] = test system: mice; assay: interaction with barbital; type: in vivo, mouse; settings: i.p.
Experimental: Half an hour after the administration of CRL 41 224, groups of 10 mice receive an intraperitoneal injection of barbital (220 mg/kg).

[2] = test system: mice; assay: action on the spontaneous motility (actimeter); type: in vivo, mouse; settings: mice, i.p.
Experimental: 0.5 hour after they have received CRL 41 224, the mice (6 per dose, 12 control animals) are placed in an actimeter, where their motility is recorded for 30 minutes.

[3] = test system: mice; assay: action on the behavioral despair; type: in vivo, mouse; settings: i.p.
From the text: Half an hour after they have received CRL 41 224, groups of 6 mice are placed in a beaker filled with water to a height of 6 cm. The total period of immobility between the 2nd and 6th minutes following immersion is noted.

[4] = test system: mice; assay: action on the intergroup aggression; type: in vivo, mouse; settings: i.p.
Experimental: After they have stayed for 3 weeks in the 2 halves of a cage divided by an opaque partition, groups of 3 mice receive CRL 41 224. Half an hour later, the two groups from the same cage are brought together by removal of the partition, and the number of fights which occur in 10 minutes is noted. Half the test is performed on ordinary mice (NMRI, C.E.R. January) and half on NMRI (Iffa Credo) mice.

[5] = test system: rats; assay: interaction with apomorphine in rats; type: in vivo, rat; settings: i.p., 16 and especially 64 mg/kg, apomorphine 0.5 mg/kg s.c.
Experimental: CRL 41 224 is administered to groups of 6 rats 0.5 hour before the subcutaneous injection of 0.5 mg/kg of apomorphine.

[6] = test system: mice; assay: four plate test, traction and electric shock; type: in vivo, mouse; settings: mice, i.p.
Experimental: The test is performed on groups of 10 mice 30 minutes after the administration of CRL 41 224.

[7] = test system: mice; assay: asphyxiant anoxia (gallamine triiodoethylate); type: in vivo, mouse; settings: i.p.
Experimental: Groups of 10 mice receive CRL 41 224 half an hour before the intraperitoneal administration of 32 mg/kg of gallamine triiodoethylate (reference curarizing agent).

[8] = test system: rats; assay: overall behavior and reactivities in rats; type: in vivo, rat; settings: i.p.
Experimental: (§1) Groups of three animals are observed before and then 0.25 hour, 0.50 hour, 1 hour, 2 hours, 3 hours and 24 hours after the administration of CRL 41 224.

[9] = test system: mice; assay: interaction with apomorphine in mice; type: in vivo, mouse; settings: mice, i.p., 8, 32 and 128 mg/kg; apomorphine 1 or 16 mg/kg s.c.
Experimental: Groups of 6 mice receive CRL 41 224 0.5 hour before the subcutaneous injection of 1 or 16 mg/kg of apomorphine.

[10] = test system: mice; assay: interaction with reserpine; type: in vivo, mouse; settings: mice, i.p.
Experimental: Four hours after the intraperitoneal injection of 2.5 mg/kg of reserpine, groups of 6 mice receive CRL 41 224.

[11] = test system: peripheral α-adrenergic stimulation; assay: signs of peripheral adrenergic stimulation; type: in vivo, mouse; rat; settings: i.p.; dose not stated
Experimental: as §1

[12] = test system: mice; assay: motility reduced by hypoxic aggression; type: in vivo, mouse; settings: i.p., 8, 32 and especially 128 mg/kg
Experimental: Half an hour after they have received CRL 41 224, the mice (10 per dose, 20 control animals) are subjected to acute hypobaric anoxia [pressure reduction of 600 mm Hg (i.e. about 8×10^4 Pa) in 90 seconds; release of vacuum in 45 seconds] and are then placed in an actimeter, where their motility is recorded for 10 minutes.

[13] = test system: CNS; assay: overall neuropsychopharmacological (CNS) profile; type: in vivo, mouse; rat; settings: i.p.
Experimental: The neuropsychopharmacological study of CRL 41 219 was carried out as indicated above for CRL 41 224.
The neuropsychopharmacological study of CRL 41 220 was carried out in accordance with the procedures given above for CRL 41 224.

[14] = test system: rats; assay: interaction with amphetamine; type: in vivo, rat; settings: rats, i.p., 16 and especially 64 mg/kg; amphetamine 2 mg/kg i.p.
Experimental: Amphetamine (2 mg/kg) is injected intraperitoneally into groups of 6 rats 30 minutes after the administration of CRL 41 224.

[15] = test system: mice; assay: overall behavior and reactivities in mice; type: in vivo, mouse; settings: i.p.
Experimental: as §1

[16] = test system: mice; assay: interaction with oxotremorine; type: in vivo, mouse
Experimental: CRL 41 224 is administered to groups of 6 mice 0.5 hour before the intraperitoneal injection of 0.5 mg/kg of oxotremorine.

[17] = test system: mice; assay: motility reduced by habituation to the enclosure; type: in vivo, mouse; settings: i.p., 32 and 128 mg/kg
Experimental: After they have stayed in the actimeters for 18 hours, the mice (6 per dose, 12 control animals) receive CRL 41 224. They are immediately returned to their respective enclosures and, half an hour later, their motility is recorded for 30 minutes.

[18] = test system: male mice; assay: acute toxicity, intraperitoneal (lethal doses); type: in vivo, mouse; settings: i.p.
Experimental: By intraperitoneal administration to male mice, the LD-30 (lethal dose for 30% of the animals tested) is of the order of 128 mg/kg and the LD-50 is of the order of about 200 mg/kg.

[19] = test system: immunological properties; assay: immunological properties, overall; type: in vivo; settings: dose not stated; dihydrochloride
From the text: The present 1-(acetylaminophenyl)-2-aminopropanone derivatives are useful in therapy. They all act on the CNS, more precisely as antidepressants. They have a stimulant or excitant component in their neuropsychopharmacological profile.

[20] = pH of the aqueous solution as a function of concentration; type: physicochemical
Experimental: The neuropsychopharmacological study of CRL 41 242 was carried out according to the procedures described above for CRL 41 224, except that the pH of the aqueous solution of CRL 41 242 to be injected intraperitoneally varies as a function of the concentration in the manner indicated in Table III below.

SMILES: CCNC(C)C(=O)c1ccc(NC(C)=O)cc1 (centres unmarked) [CRL 41 224, 1-(4-acetylaminophenyl)-2-ethylaminopropanone hydrochloride]
- antagonism of the sleep induced by barbital ([1]; mice, 32 mg/kg): total antagonism
- duration of the sleep induced by barbital ([1]; mice, as from 2 mg/kg, barbital 220 mg/kg i.p.): reduces the duration of the sleep induced by barbital
- spontaneous motor activity ([2]; 8 and especially 32, 128 mg/kg): increases the spontaneous motor activity
- period of immobility (forcibly immersed mice) ([3]; 8 and especially 32, 128 mg/kg): reduces the period of immobility
- number of fights ([4]; 128 mg/kg): reduces the number of fights
- stereotypies induced by apomorphine [5]: potentiation of the stereotypies induced by apomorphine
- convulsant effects of electric shock ([6]; 128 mg/kg): does not aggravate the convulsant effects
- lethal effects of electric shock ([6]; 128 mg/kg): does not modify the lethal effects of electric shock
- motor incapacity (traction) ([6]; 128 mg/kg): does not cause major motor incapacity
- number of punished passes (four plate test) ([6]; 128 mg/kg): increase in the number of punished passes
- time taken for convulsions and death to occur following asphyxiant anoxia ([7]; mice, gallamine triiodoethylate 32 mg/kg i.p.): does not change the time taken for convulsions and death to occur
- mydriasis ([8]; 1 mg/kg): brief mydriasis
- mydriasis, time of appearance after administration ([8]; 1 mg/kg): 0.5 h
- mydriasis, duration ([8]; 4 mg/kg): 2 h
- mydriasis, duration ([8]; 16 mg/kg): 3 h
- stereotypies, duration ([8]; 16 mg/kg): 3 h
- excitation, duration ([8]; 64 mg/kg): 1 h
- hyperthermia, duration ([8]; 64 mg/kg): 3 h
- hyperthermia, temperature change ([8]; 64 mg/kg): +1.5 °C
- increase in the reactivity to touch and muscular tonus, duration ([8]; 64 mg/kg): 3 h
- mydriasis, duration ([8]; 64 mg/kg): 3 h
- piloerection, duration ([8]; 64 mg/kg): 1 h
- stereotypies, duration ([8]; 64 mg/kg): 3 h
- hypothermia induced by apomorphine [9]: opposes the hypothermia induced by apomorphine
- righting behavior and stereotypy behavior (apomorphine) [9]: without modifying the righting behavior and stereotypy behavior
- ptosis induced by reserpine ([10]; 128 mg/kg): reduces the intensity of the ptosis induced by reserpine
- significance of the antagonism of hypothermia induced by reserpine ([10]; 32 and 128 mg/kg): significant
- hypothermia induced by reserpine ([10]; as from 2 mg/kg, reserpine 2.5 mg/kg i.p.): opposes the hypothermia induced by reserpine
- peripheral adrenergic stimulation, overall [11]: peripheral α-adrenergic stimulant effects
- motor recovery after acute hypobaric anoxia [12]: distinct improvement in the motor recovery
- overall action on the CNS ([13]; mice and rats, dose not stated, hydrochloride): antidepressant effects; also recorded: stimulant effects; also recorded: behaves as an antidepressant for the CNS
- stereotypies induced by amphetamine [14]: potentiation of the stereotypies induced by amphetamine
- excitation, duration ([15]; mice, 32 mg/kg): 3 h
- excitation, duration ([15]; mice, 128 mg/kg): 3 h
- hyperthermia, temperature change ([15]; mice, 128 mg/kg): +0.9 °C
- increase in the reactivity to touch and muscular tonus, duration ([15]; mice, 128 mg/kg): 24 h
- moderate mydriasis, duration ([15]; mice, 128 mg/kg): 3 h
- forms of behavior, reactivities and variations in pupil diameter and rectal temperature ([15]; mice, 2 and 8 mg/kg): substantially comparable to those of the control group
- signs of peripheral cholinergic stimulation induced by oxotremorine ([16]; mice, i.p.): does not modify the signs of peripheral cholinergic stimulation
- hypothermic action of oxotremorine ([16]; mice, i.p., 2, 8 and especially 32, 128 mg/kg, oxotremorine 0.5 mg/kg i.p.): opposes the hypothermic action of oxotremorine
- trembling induced by oxotremorine ([16]; mice, i.p., 8, 32 and especially 128 mg/kg): distinctly reduces the intensity of the trembling induced by oxotremorine
- motor activity of mice accustomed to their enclosure [17]: distinct resumption in the motor activity

SMILES: CC(=O)Nc1ccc(C(=O)C(C)N2CCN(C)CC2)cc1 (centres unmarked) [CRL 41 242, 1-(4-acetylaminophenyl)-2-(4-methylpiperazino)-propanone dihydrochloride]
- duration of the sleep induced by barbital ([1]; strong/high doses): an increase in the duration of the sleep induced by barbital
- LD-0 (maximum non-lethal dose) [18]: greater than 256 mg/kg
- LD-60 [18]: about 500 mg/kg
- spontaneous motility ([2]; high doses): a decrease in the spontaneous motility
- immunological properties, overall [19]: beneficial immunomodulating effects; also recorded: particularly valuable as an immunostimulant substance
- period of immobility of mice forcibly immersed ([3]; strong/high doses): a slight reduction in the period of immobility
- intergroup aggression ([4]; high doses): a reduction in the intergroup aggression
- number of punished passes in the four plate test ([6]; high doses): a decrease in the spontaneous motility and the number of punished passes
- pH of the aqueous solution ([20]; 0.2 g/liter): 5.0
- pH of the aqueous solution ([20]; 0.4 g/liter): 4.5
- pH of the aqueous solution ([20]; 0.8 g/liter): 4.0
- pH of the aqueous solution ([20]; 2 g/liter): 3.5
- pH of the aqueous solution ([20]; 13 g/liter): 3.0
- pH of the aqueous solution ([20]; 50 g/liter): 2.5
- pH of the aqueous solution ([20]; ≤0.05 g/liter): 5.5
- time taken for asphyxiant convulsions (and death) to occur ([7]; high dose): an increase in the time taken for convulsions and death to occur following asphyxiant anoxia
- sedation ([8]; high doses): sedation in mice and rats
- overall action on the CNS ([13]; strong/high doses, dihydrochloride): sedative effects; also recorded: antidepressant effects
- effects of the stimulant type ([13]; weak doses): very discreet effects of the stimulant type
- reactivities ([15]; high doses): decrease in the reactivities
- body temperature (hypothermia) ([15]; strong/high doses): hypothermia in mice
- sedation ([15]; mice, high doses): sedation in mice
- hypothermia induced by oxotremorine ([16]; i.p., strong/high doses): very moderate antagonism of the hypothermia induced by oxotremorine
